Test results reported in patent publication US10689367B2, “Triazole pyridyl compounds as agonists of the APJ receptor” (AMGEN INC., priority 2016, dated 2020).

Target: human APJ receptor (Homo sapiens (Human), UniProt P35414)
Test: [35S]GTPγS binding assay on membranes from CHO cells stably expressing human APJ receptor
Type: biochemical
Details: membranes of CHO cells stably expressing human APJ receptor, read-out: Activity hAPJ SPA EC50 IP
How it was run: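 [35S]GTPγS binding measured on membranes from CHO cells stably expressing FLAG-tagged human APJ, with GDP, MgCl2 and NaCl levels optimized beforehand. Incubation 90 min at RT, imager read-out; EC50 from non-linear regression, averaged over several independent experiments.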

Sequence of human APJ receptor (P35414 whole entry): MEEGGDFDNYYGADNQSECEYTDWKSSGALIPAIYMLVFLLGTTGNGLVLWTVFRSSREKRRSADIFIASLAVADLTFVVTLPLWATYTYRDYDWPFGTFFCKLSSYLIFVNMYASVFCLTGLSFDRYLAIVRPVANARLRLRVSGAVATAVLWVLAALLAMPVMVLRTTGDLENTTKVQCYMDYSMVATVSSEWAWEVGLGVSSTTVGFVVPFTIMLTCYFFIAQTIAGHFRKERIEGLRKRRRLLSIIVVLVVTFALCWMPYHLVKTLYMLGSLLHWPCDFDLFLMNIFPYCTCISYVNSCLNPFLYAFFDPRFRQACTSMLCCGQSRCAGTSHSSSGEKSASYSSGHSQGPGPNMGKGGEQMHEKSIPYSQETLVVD

| Compound | EC50 |
| --- | --- |
| COc1cccc(-c2nnc(NS(=O)(=O)[C@@H](C)[C@H](C)c3ncc(Cl)cn3)n2[C@@H](C)c2noc(C)n2)n1 (single isomer, unassigned) [Example 245.0, (2S,3R)-3-(5-chloro-2-pyrimidinyl)-N-(5-(6-methoxy-2-pyridinyl)-4-((1R)-1-(5-methyl-1,2,4-oxadiazol-3-yl)ethyl)-4H-1,2,4-triazol-3-yl)-2-butanesulfonamide or (2S,3R)-3-(5-chloro-2-pyrimidinyl)-N-(5-(6-methoxy-2-pyridinyl)-4-((1S)-1-(5-methyl-1,2,4-oxadiazol-3-yl)ethyl)-4H-1,2,4-triazol-3-yl)-2-butanesulfonamide] | 7 nM |
| COc1cccc(-c2nnc(NS(=O)(=O)[C@@H](C)[C@H](C)c3ncc(Cl)cn3)n2[C@@H](C)c2nc(C)no2)n1 (single isomer, unassigned) [Example 246.0, (2S,3R)-3-(5-chloro-2-pyrimidinyl)-N-(5-(6-methoxy-2-pyridinyl)-4-((1R)-1-(5-methyl-1,2,4-oxadiazol-3-yl)ethyl)-4H-1,2,4-triazol-3-yl)-2-butanesulfonamide or (2S,3R)-3-(5-chloro-2-pyrimidinyl)-N-(5-(6-methoxy-2-pyridinyl)-4-((1S)-1-(5-methyl-1,2,4-oxadiazol-3-yl)ethyl)-4H-1,2,4-triazol-3-yl)-2-butanesulfonamide] | 3.4 nM |
| COc1cccc(-c2nnc(NS(=O)(=O)[C@@H](C)[C@H](C)c3ncc(Cl)cn3)n2[C@@H](C)c2nc(C)no2)n1 (single isomer, unassigned) [Example 247.0, (2S,3R)-3-(5-chloro-2-pyrimidinyl)-N-(5-(6-methoxy-2-pyridinyl)-4-((1R)-1-(3-methyl-1,2,4-oxadiazol-5-yl)ethyl)-4H-1,2,4-triazol-3-yl)-2-butanesulfonamide or (2S,3R)-3-(5-chloro-2-pyrimidinyl)-N-(5-(6-methoxy-2-pyridinyl)-4-((1S)-1-(3-methyl-1,2,4-oxadiazol-5-yl)ethyl)-4H-1,2,4-triazol-3-yl)-2-butanesulfonamide] | 5.3 nM |
| COc1cccc(-c2nnc(NS(=O)(=O)[C@@H](C)[C@H](OC)c3ncc(Cl)cn3)n2[C@@H](C)c2ncnn2C)n1 (single isomer, unassigned) [Example 248.0, (1R,2S)-1-(5-chloro-2-pyrimidinyl)-1-methoxy-N-(5-(6-methoxy-2-pyridinyl)-4-((1S)-1-(1-methyl-1H-1,2,4-triazol-5-yl)ethyl)-4H-1,2,4-triazol-3-yl)-2-propanesulfonamide or (1R,2S)-1-(5-chloro-2-pyrimidinyl)-1-methoxy-N-(5-(6-methoxy-2-pyridinyl)-4-((1R)-1-(1-methyl-1H-1,2,4-triazol-5-yl)ethyl)-4H-1,2,4-triazol-3-yl)-2-propanesulfonamide] | 270 nM |
| COc1cccc(-c2nnc(NS(=O)(=O)[C@@H](C)[C@H](OC)c3ncc(Cl)cn3)n2[C@@H](C)c2ncnn2C)n1 (single isomer, unassigned) [Example 249.0, (1R,2S)-1-(5-chloro-2-pyrimidinyl)-1-methoxy-N-(5-(6-methoxy-2-pyridinyl)-4-((1R)-1-(1-methyl-1H-1,2,4-triazol-5-yl)ethyl)-4H-1,2,4-triazol-3-yl)-2-propanesulfonamide or (1R,2S)-1-(5-chloro-2-pyrimidinyl)-1-methoxy-N-(5-(6-methoxy-2-pyridinyl)-4-((1S)-1-(1-methyl-1H-1,2,4-triazol-5-yl)ethyl)-4H-1,2,4-triazol-3-yl)-2-propanesulfonamide] | 3 nM |
| COc1cccc(-c2nnc(NS(=O)(=O)[C@@H](C)[C@H](C)c3ncc(Cl)cn3)n2[C@@H](C)c2ncnn2C)n1 (single isomer, unassigned) [Example 250.0] | 370 nM |
| COc1cccc(-c2nnc(NS(=O)(=O)[C@@H](C)[C@H](C)c3ncc(Cl)cn3)n2[C@@H](C)c2ncnn2C)n1 (single isomer, unassigned) [Example 251.0, (2S,3R)-3-(5-chloro-2-pyrimidinyl)-N-(5-(6-methoxy-2-pyridinyl)-4-((1R)-1-(1-methyl-1H-1,2,4-triazol-5-yl)ethyl)-4H-1,2,4-triazol-3-yl)-2-butanesulfonamide or (2S,3R)-3-(5-chloro-2-pyrimidinyl)-N-(5-(6-methoxy-2-pyridinyl)-4-((1S)-1-(1-methyl-1H-1,2,4-triazol-5-yl)ethyl)-4H-1,2,4-triazol-3-yl)-2-butanesulfonamide] | 1.7 nM |
| COc1cccc(-c2nnc(NS(=O)(=O)[C@@H](C)[C@@H](OC(C)C)c3ncc(C)cn3)n2[C@@H](C)c2ncnn2C)n1 (single isomer, unassigned) [Example 253.0, (1S,2S)-N-(5-(6-methoxy-2-pyridinyl)-4-((1R)-1-(1-methyl-1H-1,2,4-triazol-5-yl)ethyl)-4H-1,2,4-triazol-3-yl)-1-(5-methyl-2-pyrimidinyl)-1-(2-propanyloxy)-2-propanesulfonamide or (1S,2S)-N-(5-(6-methoxy-2-pyridinyl)-4-((1S)-1-(1-methyl-1H-1,2,4-triazol-5-yl)ethyl)-4H-1,2,4-triazol-3-yl)-1-(5-methyl-2-pyrimidinyl)-1-(2-propanyloxy)-2-propanesulfonamide] | 32 nM |
| COc1cccc(-c2nnc(NS(=O)(=O)[C@@H](C)[C@H](OC)c3ncc(Cl)cn3)n2[C@@H](C)c2ncc(C)o2)n1 (single isomer, unassigned) [Example 255.0, (1R,2S)-1-(5-chloro-2-pyrimidinyl)-1-methoxy-N-(5-(6-methoxy-2-pyridinyl)-4-((1S)-1-(5-methyl-1,3-oxazol-2-yl)ethyl)-4H-1,2,4-triazol-3-yl)-2-propanesulfonamide or (1R,2S)-1-(5-chloro-2-pyrimidinyl)-1-methoxy-N-(5-(6-methoxy-2-pyridinyl)-4-((1R)-1-(5-methyl-1,3-oxazol-2-yl)ethyl)-4H-1,2,4-triazol-3-yl)-2-propanesulfonamide] | 7.5 nM |
| COc1cccc(-c2nnc(NS(=O)(=O)[C@@H](C)[C@H](OC)c3ncc(Cl)cn3)n2[C@@H](C)c2ncc(C)o2)n1 (single isomer, unassigned) [Example 256.0, (1R,2S)-1-(5-chloro-2-pyrimidinyl)-1-methoxy-N-(5-(6-methoxy-2-pyridinyl)-4-((1S)-1-(5-methyl-1,3-oxazol-2-yl)ethyl)-4H-1,2,4-triazol-3-yl)-2-propanesulfonamide or (1R,2S)-1-(5-chloro-2-pyrimidinyl)-1-methoxy-N-(5-(6-methoxy-2-pyridinyl)-4-((1R)-1-(5-methyl-1,3-oxazol-2-yl)ethyl)-4H-1,2,4-triazol-3-yl)-2-propanesulfonamide] | 0.48 nM |
| COc1cccc(-c2nnc(NS(=O)(=O)[C@@H](C)[C@H](C)c3ncc(Cl)cn3)n2[C@@H](C)c2ncc(C)o2)n1 (single isomer, unassigned) [Example 257.0, (2S,3R)-3-(5-chloro-2-pyrimidinyl)-N-(5-(6-methoxy-2-pyridinyl)-4-((1S)-1-(5-methyl-1,3-oxazol-2-yl)ethyl)-4H-1,2,4-triazol-3-yl)-2-butanesulfonamide or (2S,3R)-3-(5-chloro-2-pyrimidinyl)-N-(5-(6-methoxy-2-pyridinyl)-4-((1R)-1-(5-methyl-1,3-oxazol-2-yl)ethyl)-4H-1,2,4-triazol-3-yl)-2-butanesulfonamide] | 16 nM |
